From the Kinase Knowledgebase extract (Sharma et al. 2016) come the findings set out here.

For the assay, the target named is MAPK14 (human) (UniProt Q16539). Nature of the assay: Inhibition of MAPK14 Kinase Assay.
MAPK14 (human), sequence (Q16539 whole entry, looked up): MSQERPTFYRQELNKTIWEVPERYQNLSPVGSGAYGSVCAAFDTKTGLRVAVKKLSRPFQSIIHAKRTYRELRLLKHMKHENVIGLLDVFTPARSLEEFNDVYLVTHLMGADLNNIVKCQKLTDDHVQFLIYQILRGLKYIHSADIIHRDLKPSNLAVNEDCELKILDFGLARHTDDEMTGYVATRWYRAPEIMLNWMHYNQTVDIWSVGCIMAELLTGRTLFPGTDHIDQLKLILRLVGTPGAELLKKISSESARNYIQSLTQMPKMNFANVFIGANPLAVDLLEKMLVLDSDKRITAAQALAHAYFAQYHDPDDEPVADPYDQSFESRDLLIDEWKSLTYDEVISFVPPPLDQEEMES
In general, IC50 refers to the concentration that inhibits the measured activity by half. A low value points to greater potency. `CSc1nc(-c2ccc(F)cc2)c(-c2ccncc2)n1NC(=O)Nc1ccc(F)cc1`: the concentration for half-maximal inhibition (IC50) was 145 nM. Next, `Cn1nc(-c2ccc(F)cc2)c(-c2ccncc2)c1NC(=O)Cc1ccccc1Cl`: 71 nM. As for `O=C(Cc1ccc(F)cc1)Nc1onc(-c2ccc(F)cc2)c1-c1ccncc1`, the figure is 113 nM.

Turning to `CC(C(=O)Nc1onc(-c2ccc(F)cc2)c1-c1ccncc1)c1ccccc1` (stereo not given), the half-maximal inhibitory concentration (IC50) stood at 107 nM. Next, `CSc1nc(-c2ccc(F)cc2)c(-c2ccncc2)n1NC(C)=O`: 840 nM. Next, `CSc1nc(-c2ccc(F)cc2)c(-c2ccncc2)n1NC(=O)COc1ccccc1`: 1080 nM; `CSc1nc(-c2ccc(F)cc2)c(-c2ccncc2)n1NC(=O)c1ccccc1`: 314 nM; `CSc1nc(-c2ccc(F)cc2)c(-c2ccncc2)n1N`: 1880 nM. Next, `Cn1nc(-c2ccc(F)cc2)c(-c2ccncc2)c1NC(=O)Cc1ccc(F)cc1`: 29 nM; `CSc1nc(-c2ccc(F)cc2)c(-c2ccncc2)n1NC(=O)Cc1ccccc1Cl`: 58 nM. Molecule `CSc1nc(-c2ccc(F)cc2)c(-c2ccncc2)n1NC(=O)c1ccc(C)c(F)c1` came in with an IC50 of 242 nM.

The molecule `CSc1nc(-c2ccc(F)cc2)c(-c2ccncc2)n1NC(=O)c1cc2ccccc2o1` showed an IC50 of 873 nM.

As to `CSc1nc(-c2ccc(F)cc2)c(-c2ccncc2)n1NC(=O)c1ccco1`, the concentration for half-maximal inhibition (IC50) was 308 nM. As for `CSc1nc(-c2ccc(F)cc2)c(-c2ccncc2)n1NC(=O)Cc1ccc(F)cc1`, the IC50 is 244 nM. Next, `CSc1nc(-c2ccc(F)cc2)c(-c2ccncc2)n1NC(=O)C(C)c1ccccc1` (stereo not given): 95 nM.
